Measured values: BindingDB's records for doi:10.1128/AAC.01311-05 (Microbiotix, 2007)

What was measured:
[1] = biological target: DNA polymerase III subunit alpha (Bacillus subtilis (strain 168), UniProt O34623); test: DNA Polymerase Activity Assay; conditions: pH 7.5; 30 °C
Method: (§1) Reaction velocities were determined at each dGTP concentration and used to create double reciprocal plots of velocity versus dGTP concentration. The plots were used to assess the mechanism of inhibition and calculate the apparent Ki value for the inhibitor.

[2] = biological target: DNA polymerase III subunit alpha (Escherichia coli (strain K12), UniProt P10443); test: DNA Polymerase Activity Assay; conditions: pH 7.5; 30 °C
Method: as §1

[3] = biological target: T1, DNA polymerase alpha subunit B (Bos taurus, UniProt Q58D13); test: DNA Polymerase Activity Assay; conditions: pH 7.5; 37 °C
T1 sequence (Q58D13 whole entry): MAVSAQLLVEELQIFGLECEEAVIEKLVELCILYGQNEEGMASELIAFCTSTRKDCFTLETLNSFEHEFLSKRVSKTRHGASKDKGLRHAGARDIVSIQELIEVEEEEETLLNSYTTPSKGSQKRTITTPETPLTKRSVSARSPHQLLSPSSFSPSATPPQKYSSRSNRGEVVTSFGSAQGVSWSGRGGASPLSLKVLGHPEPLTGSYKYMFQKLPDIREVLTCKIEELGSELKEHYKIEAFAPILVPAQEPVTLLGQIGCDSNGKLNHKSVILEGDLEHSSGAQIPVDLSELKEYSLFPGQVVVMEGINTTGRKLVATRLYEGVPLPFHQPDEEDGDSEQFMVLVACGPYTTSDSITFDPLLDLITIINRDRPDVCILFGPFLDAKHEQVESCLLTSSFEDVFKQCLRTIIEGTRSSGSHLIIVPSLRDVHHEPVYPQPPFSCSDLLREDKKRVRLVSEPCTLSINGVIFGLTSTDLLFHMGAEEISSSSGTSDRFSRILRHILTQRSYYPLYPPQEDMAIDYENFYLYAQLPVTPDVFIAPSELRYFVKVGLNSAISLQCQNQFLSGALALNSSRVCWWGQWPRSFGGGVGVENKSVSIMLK
Method: as §1

[4] = biological target: DNA topoisomerase 4 subunit A [V210L]/B (Bacillus subtilis, UniProt Q45066+Q59192, V210L); test: DNA Topoisomerase IV Assay; conditions: pH 7.5; 30 °C
DNA gyrase subunit A/B = DNA gyrase subunit A/B (Bacillus subtilis (strain 168), UniProt P05652+P05653); test: DNA Gyrase Activity Assay; conditions: pH 7.5; 30 °C
DNA gyrase subunit A/B, sequence (P05653 whole entry): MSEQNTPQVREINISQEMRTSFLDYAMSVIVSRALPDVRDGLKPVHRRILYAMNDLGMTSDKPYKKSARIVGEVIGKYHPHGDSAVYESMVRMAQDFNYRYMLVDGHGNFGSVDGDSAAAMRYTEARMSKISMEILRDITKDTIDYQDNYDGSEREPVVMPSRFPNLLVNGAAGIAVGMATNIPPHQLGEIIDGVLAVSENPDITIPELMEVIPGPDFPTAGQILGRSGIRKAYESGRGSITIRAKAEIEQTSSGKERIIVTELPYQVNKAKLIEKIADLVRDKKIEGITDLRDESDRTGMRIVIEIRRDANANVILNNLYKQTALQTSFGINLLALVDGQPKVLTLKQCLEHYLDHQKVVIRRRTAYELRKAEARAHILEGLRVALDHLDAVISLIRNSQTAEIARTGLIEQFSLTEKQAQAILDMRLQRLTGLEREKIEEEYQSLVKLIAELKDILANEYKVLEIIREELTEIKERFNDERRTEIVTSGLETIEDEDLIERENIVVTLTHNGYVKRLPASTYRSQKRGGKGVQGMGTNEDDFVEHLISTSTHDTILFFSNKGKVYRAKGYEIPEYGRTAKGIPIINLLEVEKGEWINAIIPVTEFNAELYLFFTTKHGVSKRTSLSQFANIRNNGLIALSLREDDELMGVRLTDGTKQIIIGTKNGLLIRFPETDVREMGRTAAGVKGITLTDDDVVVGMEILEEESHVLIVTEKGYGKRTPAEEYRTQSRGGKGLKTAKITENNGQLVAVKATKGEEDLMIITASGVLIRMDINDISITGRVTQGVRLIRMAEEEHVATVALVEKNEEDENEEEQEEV
DNA gyrase subunit A/B, sequence (P05652 whole entry): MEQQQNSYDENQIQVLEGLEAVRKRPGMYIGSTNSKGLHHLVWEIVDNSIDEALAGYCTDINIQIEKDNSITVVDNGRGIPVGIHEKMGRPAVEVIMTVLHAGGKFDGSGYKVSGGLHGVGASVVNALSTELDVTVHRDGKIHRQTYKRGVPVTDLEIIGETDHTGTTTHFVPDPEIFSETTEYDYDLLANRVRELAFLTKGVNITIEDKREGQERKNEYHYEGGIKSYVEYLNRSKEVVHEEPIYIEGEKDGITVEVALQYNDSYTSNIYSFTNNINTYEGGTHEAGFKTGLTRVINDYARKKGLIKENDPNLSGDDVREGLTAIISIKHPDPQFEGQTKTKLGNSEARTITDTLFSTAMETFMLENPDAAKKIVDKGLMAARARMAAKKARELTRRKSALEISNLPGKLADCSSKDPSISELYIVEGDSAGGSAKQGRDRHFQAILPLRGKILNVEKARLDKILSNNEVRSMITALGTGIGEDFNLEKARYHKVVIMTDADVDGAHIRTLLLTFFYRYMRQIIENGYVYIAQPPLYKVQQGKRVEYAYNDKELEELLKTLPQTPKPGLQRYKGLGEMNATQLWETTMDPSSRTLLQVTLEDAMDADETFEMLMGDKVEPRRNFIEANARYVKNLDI

DNA topoisomerase 4 subunit A [V210L]/B, sequence (Q45066 whole entry V210L): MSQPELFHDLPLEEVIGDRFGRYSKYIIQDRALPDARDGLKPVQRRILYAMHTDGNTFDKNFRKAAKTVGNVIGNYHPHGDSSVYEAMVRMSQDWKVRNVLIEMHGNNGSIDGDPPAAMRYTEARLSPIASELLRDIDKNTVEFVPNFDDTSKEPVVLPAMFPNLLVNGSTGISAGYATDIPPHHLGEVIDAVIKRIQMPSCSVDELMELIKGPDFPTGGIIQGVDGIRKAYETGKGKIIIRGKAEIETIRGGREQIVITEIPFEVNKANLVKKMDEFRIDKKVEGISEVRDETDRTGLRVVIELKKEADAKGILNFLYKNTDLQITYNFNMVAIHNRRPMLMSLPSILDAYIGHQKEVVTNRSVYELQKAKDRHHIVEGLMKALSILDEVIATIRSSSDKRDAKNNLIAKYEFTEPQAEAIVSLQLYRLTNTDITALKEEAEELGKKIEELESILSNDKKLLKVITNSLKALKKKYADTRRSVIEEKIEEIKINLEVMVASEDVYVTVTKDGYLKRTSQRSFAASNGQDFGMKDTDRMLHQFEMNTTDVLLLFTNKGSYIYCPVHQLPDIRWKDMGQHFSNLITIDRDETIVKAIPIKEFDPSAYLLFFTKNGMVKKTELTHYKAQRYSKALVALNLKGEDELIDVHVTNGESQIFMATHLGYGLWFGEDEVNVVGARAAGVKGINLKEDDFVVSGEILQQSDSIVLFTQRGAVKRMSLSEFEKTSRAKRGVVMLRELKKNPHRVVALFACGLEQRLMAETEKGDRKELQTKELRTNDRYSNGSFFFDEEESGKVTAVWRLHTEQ
DNA topoisomerase 4 subunit A [V210L]/B, sequence (Q59192 whole entry): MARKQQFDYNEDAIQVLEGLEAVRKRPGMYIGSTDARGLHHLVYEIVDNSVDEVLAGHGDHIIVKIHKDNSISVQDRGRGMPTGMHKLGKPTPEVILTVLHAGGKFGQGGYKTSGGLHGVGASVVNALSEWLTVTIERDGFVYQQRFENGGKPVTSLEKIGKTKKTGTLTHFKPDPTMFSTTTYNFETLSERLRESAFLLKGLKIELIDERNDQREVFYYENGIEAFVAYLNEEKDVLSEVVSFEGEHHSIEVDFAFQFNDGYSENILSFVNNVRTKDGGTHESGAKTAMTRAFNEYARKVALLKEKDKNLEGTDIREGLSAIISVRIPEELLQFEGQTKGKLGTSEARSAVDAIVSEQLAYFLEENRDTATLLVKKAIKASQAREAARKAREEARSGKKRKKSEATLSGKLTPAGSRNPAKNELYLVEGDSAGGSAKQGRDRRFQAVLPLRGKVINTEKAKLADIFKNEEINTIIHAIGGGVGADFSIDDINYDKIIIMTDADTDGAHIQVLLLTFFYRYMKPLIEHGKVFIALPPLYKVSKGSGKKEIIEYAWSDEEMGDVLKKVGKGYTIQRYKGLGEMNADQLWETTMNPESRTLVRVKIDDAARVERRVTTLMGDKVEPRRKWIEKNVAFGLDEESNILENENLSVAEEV
DNA polymerase III subunit alpha (Escherichia coli (strain K12), UniProt P10443), sequence (P10443 whole entry): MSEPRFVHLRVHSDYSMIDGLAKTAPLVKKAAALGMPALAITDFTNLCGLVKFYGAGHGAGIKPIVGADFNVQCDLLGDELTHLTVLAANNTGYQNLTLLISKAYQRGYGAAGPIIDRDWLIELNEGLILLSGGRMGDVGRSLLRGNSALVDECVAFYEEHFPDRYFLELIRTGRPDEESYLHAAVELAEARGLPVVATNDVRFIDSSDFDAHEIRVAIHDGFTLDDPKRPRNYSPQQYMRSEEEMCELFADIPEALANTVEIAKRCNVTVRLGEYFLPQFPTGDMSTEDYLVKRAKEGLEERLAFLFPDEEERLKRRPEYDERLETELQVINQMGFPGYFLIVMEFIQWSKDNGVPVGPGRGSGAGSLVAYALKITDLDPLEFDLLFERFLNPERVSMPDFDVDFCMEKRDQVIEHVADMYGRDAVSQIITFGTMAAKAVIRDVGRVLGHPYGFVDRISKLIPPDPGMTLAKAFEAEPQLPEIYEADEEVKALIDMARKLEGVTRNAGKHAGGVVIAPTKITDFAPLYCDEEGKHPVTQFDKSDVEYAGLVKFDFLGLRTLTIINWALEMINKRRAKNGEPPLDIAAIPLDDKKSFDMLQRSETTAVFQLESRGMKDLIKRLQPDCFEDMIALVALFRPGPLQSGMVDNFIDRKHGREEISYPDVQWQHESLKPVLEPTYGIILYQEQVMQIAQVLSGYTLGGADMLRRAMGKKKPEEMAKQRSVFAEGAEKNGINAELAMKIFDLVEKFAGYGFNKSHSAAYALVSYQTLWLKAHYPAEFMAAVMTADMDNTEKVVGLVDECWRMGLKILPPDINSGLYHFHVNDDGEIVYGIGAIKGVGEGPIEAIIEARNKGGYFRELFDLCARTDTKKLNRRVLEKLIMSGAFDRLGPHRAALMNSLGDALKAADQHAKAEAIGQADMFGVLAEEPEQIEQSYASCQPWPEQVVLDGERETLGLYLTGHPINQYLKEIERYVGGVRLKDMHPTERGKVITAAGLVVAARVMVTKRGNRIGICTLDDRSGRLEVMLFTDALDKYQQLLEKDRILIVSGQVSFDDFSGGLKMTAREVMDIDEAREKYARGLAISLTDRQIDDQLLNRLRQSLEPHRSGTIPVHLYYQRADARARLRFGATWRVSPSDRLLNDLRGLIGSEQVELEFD

| Ki [1] [µM] | Ki [2] [µM] | Structure (SMILES) | Ki [3] [µM] | IC50 [4] [µM] | IC50 (DNA gyrase subunit A/B) [µM] |
| --- | --- | --- | --- | --- | --- |
| > 482 | > 482 | CCc1cc(Nc2cc(=O)n(CCCCN3CCN(c4c(F)cc5c(=O)c(C(=O)O)cn(C6CC6)c5c4F)CC3C)c(=O)[nH]2)ccc1C (stereo unspecified) | > 482 |  |  |
|  |  | CCc1cc(Nc2cc(=O)n(CCCCO)c(=O)[nH]2)ccc1C [HBEMAU] | > 1010 | > 500 | > 500 |
